Measured values published in US20050112204A1, “Pharmaceutical formulations” (priority 2003, published 2005).
In brackets after ≈: the same amount, converted by molar mass.

Legend:
Format in all cases: physicochemical
[1] = visual solubility of voriconazole in water and aqueous poloxamer F127 solutions (Example 2); conditions: for visual solubility in water: ambient conditions; for solubility: aqueous poloxamer F127 solution, aqueous with cosolvent or surfactant or cyclodextrin, thermodynamic from solid, read-out: soluble up to
Description: Voriconazole aqueous solutions of 0.5 and 1 mg/ml were prepared in water (20 ml). Corresponding aqueous solutions of 2, 3 and 4 mg/ml were prepared in aqueous poloxamer solutions (20 ml), as follows: The samples were prepared in 50 ml glass vials, and sonicated in an ultrasonic bath for 30 minutes. The solutions were allowed to cool, then visually assessed immediately and after 18 hours. The solubilization factor on the y-axis is a code for the level of solubility visually observed.

[2] = aqueous solubility of voriconazole (previously measured data); conditions: water, aqueous buffer; pH 7; 22° C.
[3] = stability of voriconazole in water; conditions: an inactive enantiomer is formed from recombination of the retro-aldol products of hydrolysis

For `C[C@@H](c1ncncc1F)[C@](O)(Cn1cncn1)c1ccc(F)cc1F` [voriconazole, (2R,3S)-2-(2,4-Difluorophenyl)-3-(5-fluoro-4-pyrimidinyl)-1-(1H-1,2,4-triazol-1-yl)-butan-2-ol], the “visual solubility in water” value ([1]; 0.5 mg/ml in water) was “virtually complete solubility”, the “visual solubility in water” value ([1]; 1 mg/ml in water) was “clearly insoluble” and the “increase in solubility in comparison with water alone” value ([1]; 10% F127 solution) was “three to four fold”. The “increase in solubility in comparison with water alone” value ([1]; 15% F127 solution) was “five to six fold”, the solubility ([1]; in 10% F127 solution) was ≤ 2000 µg/mL and the solubility ([1]; in 15% F127 solution) was ≤ 3000 µg/mL. For the same compound, the solubility [2] was 610 µg/mL (≈ 1.75 mM) and the stability in water [3] was “not stable in water”.
